{
  "source": "patent US6818672B1",
  "about": "“Treating endometriosis or infertility, or improving fertility” (Columbia Laboratories, Inc., priority 1999, dated 2004)",
  "origin": "cited, not measured here",
  "key": {"[1]": {"system": "myometrial activity, uterine blood flow, lower abdominal pain"}, "[2]": {"conditions": "intravenous administration"}},
  "data": [
    {"smiles": "CC(C)(C)NCC(O)c1cc(O)cc(O)c1", "note": "(centres unmarked) [terbutaline, 5-[2-[(1,1-dimethylethyl)amino]-1-hydroxyethyl]-1,3-benzenediol]", "values": [
      {"measurement": "Bioavailability", "setting": "after oral administration, extensive first-pass sulphation", "result": "15 and 20%"},
      {"measurement": "Decrease of bioavailability by concomitant food intake", "setting": "oral administration with concomitant food intake", "result": 30, "unit": "%"},
      {"measurement": "Duration of effect of each spray", "setting": "[1]; terbutaline inhalation, severe pain in essential dysmenorrhea", "result": 1, "unit": "h"},
      {"measurement": "Effect on myometrial activity, uterine blood flow and pain in dysmenorrhea", "setting": "[1]; women with primary dysmenorrhea", "result": "inhibit myometrial activity, increase blood flow to the uterus, and relieve the pain"},
      {"measurement": "Adverse effects", "setting": "[2]", "result": "palpitations and peripheral tremors"}
    ]}
  ]
}
